Results taken from US20050143382A1 (4SC AG, priority 2003, published 2005).

Columns and labels:
Assay type in all cases: biochemical
Settings in all cases: recombinant human kinase, 1 μM ATP
[1] = target: T1, SRC kinase (Homo sapiens, UniProt P12931); assay: 33PanQinase protein kinase activity assay, SRC
T1 construct: made in house; host or cells: Sf9 insect cells (baculovirus)
Description: (§1) The effect of the farazanopyrazine derivatives was tested on recombinant, human protein kinases. All protein kinases were expressed in Sf9 insect cells as human recombinant GST-fusion proteins or as His-tagged proteins by means of the baculovirus expression system. Protein kinases were purified by affinity chromatography using either GSH-agarose or Ni-NTH-agarose. The purity and identity of each was checked by SDS-PAGE/silver staining and by western blot analysis with specific antibodies.
(§2) A proprietary protein kinase assay (^33 PanQinase® Activity Assay) was used for measuring the kinase activity. All kinase assays were performed in 96-well FlashPlates™ in a 50 μl reaction volume. The assay for all enzymes contained 60 mM HEPES-NaOH, pH 7.5, 3 mM MgCl2, 3 mM MnCl2, 3 μM Na-orthovanadate, 1.2 mM DTT, 50 μg/ml PEG20000 and 1 μM [γ-^33P]-ATP (approx. 5×10^5 cpm per well).
(§3) The reaction cocktails were incubated at 30° C. for 80 minutes. The reaction was stopped with 50 μl of 2% (v/v) H3PO4, plates were aspirated and washed two times with 200 μl of 0.9% (w/v) NaCl. Incorporation of 33Pi was determined with a microplate scintillation counter. All assays were performed with a BeckmanCoulter/Sagian robotic system.

[2] = target: T2, IGF-1 R (Homo sapiens, UniProt P08069); assay: 33PanQinase protein kinase activity assay, IGF-1 R
T2 construct: made in house; host or cells: Sf9 insect cells (baculovirus)
Description: as §1, §2, §3

[3] = target: T3, VEGF-R2 (Homo sapiens, UniProt P35968); assay: 33PanQinase protein kinase activity assay, VEGF-R2
T3 construct: made in house; host or cells: Sf9 insect cells (baculovirus)
Description: as §1, §2, §3

T2 sequence (P08069 31-1367): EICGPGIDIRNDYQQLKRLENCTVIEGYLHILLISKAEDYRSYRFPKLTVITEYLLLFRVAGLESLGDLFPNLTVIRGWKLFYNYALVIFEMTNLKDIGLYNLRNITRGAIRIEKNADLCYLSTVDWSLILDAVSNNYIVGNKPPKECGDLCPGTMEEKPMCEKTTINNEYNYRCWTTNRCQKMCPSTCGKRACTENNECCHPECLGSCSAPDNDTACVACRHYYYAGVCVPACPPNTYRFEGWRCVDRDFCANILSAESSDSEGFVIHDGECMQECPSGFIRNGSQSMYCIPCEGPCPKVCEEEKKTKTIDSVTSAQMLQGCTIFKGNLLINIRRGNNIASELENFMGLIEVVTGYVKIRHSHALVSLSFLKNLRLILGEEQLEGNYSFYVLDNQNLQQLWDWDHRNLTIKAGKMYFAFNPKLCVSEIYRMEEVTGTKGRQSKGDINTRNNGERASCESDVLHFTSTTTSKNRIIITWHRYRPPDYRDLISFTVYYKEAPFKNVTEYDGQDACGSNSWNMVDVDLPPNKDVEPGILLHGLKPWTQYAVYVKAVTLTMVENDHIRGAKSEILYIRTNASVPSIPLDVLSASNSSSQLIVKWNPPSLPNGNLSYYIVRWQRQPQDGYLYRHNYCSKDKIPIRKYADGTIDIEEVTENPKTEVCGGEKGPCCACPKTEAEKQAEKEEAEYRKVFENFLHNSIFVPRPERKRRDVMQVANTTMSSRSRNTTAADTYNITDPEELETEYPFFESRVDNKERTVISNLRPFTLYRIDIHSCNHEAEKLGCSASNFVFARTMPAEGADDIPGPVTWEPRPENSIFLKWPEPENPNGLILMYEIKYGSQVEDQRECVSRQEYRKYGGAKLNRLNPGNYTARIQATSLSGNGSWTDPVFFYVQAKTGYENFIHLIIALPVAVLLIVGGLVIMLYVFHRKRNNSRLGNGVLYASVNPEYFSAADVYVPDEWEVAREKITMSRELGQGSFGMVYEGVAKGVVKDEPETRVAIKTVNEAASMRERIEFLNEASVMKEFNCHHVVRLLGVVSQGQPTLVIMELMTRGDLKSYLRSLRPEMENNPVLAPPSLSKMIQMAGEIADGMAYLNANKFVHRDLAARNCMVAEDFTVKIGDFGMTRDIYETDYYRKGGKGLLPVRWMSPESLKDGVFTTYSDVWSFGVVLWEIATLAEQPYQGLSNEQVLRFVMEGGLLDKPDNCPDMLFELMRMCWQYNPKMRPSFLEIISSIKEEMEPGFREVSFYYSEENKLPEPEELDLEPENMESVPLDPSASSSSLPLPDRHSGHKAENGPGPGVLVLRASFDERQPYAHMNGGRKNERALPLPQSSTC
T1 sequence (P12931 whole entry): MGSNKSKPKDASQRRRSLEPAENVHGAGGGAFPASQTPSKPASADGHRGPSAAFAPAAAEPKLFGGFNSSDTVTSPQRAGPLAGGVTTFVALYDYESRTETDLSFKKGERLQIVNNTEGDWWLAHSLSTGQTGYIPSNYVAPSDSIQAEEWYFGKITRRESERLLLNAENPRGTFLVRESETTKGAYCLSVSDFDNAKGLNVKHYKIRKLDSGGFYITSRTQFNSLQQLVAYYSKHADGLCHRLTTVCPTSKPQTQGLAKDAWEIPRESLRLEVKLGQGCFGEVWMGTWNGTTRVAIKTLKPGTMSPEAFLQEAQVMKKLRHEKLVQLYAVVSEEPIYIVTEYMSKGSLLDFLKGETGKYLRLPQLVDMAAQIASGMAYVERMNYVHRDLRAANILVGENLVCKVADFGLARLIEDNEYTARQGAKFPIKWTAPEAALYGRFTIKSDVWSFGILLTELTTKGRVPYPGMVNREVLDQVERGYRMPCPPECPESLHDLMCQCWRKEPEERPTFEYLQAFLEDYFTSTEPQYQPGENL
T3 sequence (P35968 20-1356): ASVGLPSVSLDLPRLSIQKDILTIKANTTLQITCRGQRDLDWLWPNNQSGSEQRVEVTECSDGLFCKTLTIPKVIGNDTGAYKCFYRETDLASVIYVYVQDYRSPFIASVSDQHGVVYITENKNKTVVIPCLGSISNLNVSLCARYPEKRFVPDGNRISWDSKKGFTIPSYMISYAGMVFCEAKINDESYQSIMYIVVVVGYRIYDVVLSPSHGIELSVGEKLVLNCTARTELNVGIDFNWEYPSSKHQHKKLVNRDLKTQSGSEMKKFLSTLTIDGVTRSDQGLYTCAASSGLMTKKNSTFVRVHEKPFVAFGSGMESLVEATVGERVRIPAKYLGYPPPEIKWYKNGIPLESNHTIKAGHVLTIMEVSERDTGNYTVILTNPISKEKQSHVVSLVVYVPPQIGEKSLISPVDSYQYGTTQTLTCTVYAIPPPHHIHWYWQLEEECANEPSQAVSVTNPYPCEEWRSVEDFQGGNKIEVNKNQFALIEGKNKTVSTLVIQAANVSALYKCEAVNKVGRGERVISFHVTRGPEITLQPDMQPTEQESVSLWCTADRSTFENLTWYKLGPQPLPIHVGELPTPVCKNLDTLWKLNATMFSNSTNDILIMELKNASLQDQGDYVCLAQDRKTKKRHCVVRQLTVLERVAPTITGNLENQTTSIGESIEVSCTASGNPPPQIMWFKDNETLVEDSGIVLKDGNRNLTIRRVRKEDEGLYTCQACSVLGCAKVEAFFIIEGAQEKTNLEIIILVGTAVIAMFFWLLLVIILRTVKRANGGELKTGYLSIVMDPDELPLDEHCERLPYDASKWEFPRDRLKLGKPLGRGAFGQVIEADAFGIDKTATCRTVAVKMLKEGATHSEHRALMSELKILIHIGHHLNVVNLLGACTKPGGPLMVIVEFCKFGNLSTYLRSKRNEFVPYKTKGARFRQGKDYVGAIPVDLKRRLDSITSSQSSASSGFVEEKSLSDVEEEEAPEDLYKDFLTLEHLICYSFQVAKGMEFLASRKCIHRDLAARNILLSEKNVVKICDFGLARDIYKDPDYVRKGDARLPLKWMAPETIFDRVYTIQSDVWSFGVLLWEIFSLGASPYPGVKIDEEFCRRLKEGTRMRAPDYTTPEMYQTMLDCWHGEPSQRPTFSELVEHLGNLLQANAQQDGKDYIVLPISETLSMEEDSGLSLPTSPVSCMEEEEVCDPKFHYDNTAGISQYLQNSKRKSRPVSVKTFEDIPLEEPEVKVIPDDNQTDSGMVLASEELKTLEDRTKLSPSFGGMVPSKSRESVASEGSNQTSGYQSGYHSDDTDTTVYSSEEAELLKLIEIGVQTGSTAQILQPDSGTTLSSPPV

| SMILES | IC50 [1] [nM] | IC50 [2] [nM] | IC50 [3] [nM] |
| --- | --- | --- | --- |
| NC(=O)c1cccc(-c2ccc(C=NNc3nc4nonc4nc3Nc3ccc(F)c(Cl)c3)o2)c1 [Example 178] | < 1000 | < 1000 | < 2000 |
| O=C(O)c1ccc(-c2ccc(C=NNc3nc4nonc4nc3Nc3ccc(F)cc3)o2)cc1 [Example 139] | < 1000 | < 1000 |  |
| Oc1c(Br)cc(Br)cc1C=NNc1nc2nonc2nc1Nc1ccc(Cl)cc1 [Example 30] | < 1000 | < 1000 |  |
| COc1ccc(O)c(C=NNc2nc3nonc3nc2Nc2ccc(F)c(Cl)c2)c1 [Example 167] | < 1000 |  |  |
| Oc1c(I)cc(I)cc1C=NNc1nc2nonc2nc1Nc1cccc(Br)c1 [Example 35] | < 1000 | < 1000 | < 2000 |
| Oc1c(Br)cc(Br)cc1C=NNc1nc2nonc2nc1Nc1cccc(Cl)c1 [Example 151] | < 1000 | < 1000 |  |
| COc1ccc(O)c(C=NNc2nc3nonc3nc2Nc2ccc(Cl)c(Cl)c2)c1 [Example 191] | < 1000 | < 1000 | < 2000 |
| O=c1[nH]c2ccc(Nc3nc4nonc4nc3NN=Cc3cc(I)cc(I)c3OCc3ccc(Cl)cc3Cl)cc2[nH]1 [Example 55, 5-(6-{N′-[2-(2,4-Dichloro-benzyloxy)-3,5-diiodo-benzylidene]-hydrazino}-[1,2,5]oxadiazolo[3,4-b]pyrazin-5-ylamino)-1,3-dihydro-benzoimidazol-2-one] | < 1000 | < 1000 |  |
| O=C1Nc2ccccc2C1=NNc1nc2nonc2nc1Nc1ccc(Cl)c(Cl)c1 [Example 201, 3-{[6-(3,4-Dichloro-phenylamino)-[1,2,5]oxadiazolo [3,4-b]pyrazin-5-yl]-hydrazono}-1,3-dihydro-indol-2-one] | < 1000 | < 1000 | < 2000 |
| COc1cccc(C=NNc2nc3nonc3nc2Nc2ccc(Cl)c(Cl)c2)c1O [Example 192] |  | < 1000 |  |
| NC(=O)c1cccc(-c2ccc(C=NNc3nc4nonc4nc3Nc3ccc(Cl)c(Cl)c3)o2)c1 [Example 198] | < 1000 | < 1000 | < 2000 |
| O=C(O)c1ccc(C=NNc2nc3nonc3nc2Nc2cccc(Cl)c2)cc1 [Example 143] |  | < 1000 |  |
| O=C(O)c1cccc(C=NNc2nc3nonc3nc2Nc2ccc(Cl)c(Cl)c2)c1 [Example 186] | < 1000 | < 1000 | < 2000 |
| Oc1c(Br)cc(Cl)cc1C=NNc1nc2nonc2nc1Nc1ccc(Cl)c(Cl)c1 [Example 14] | < 1000 | < 1000 | < 2000 |
| COc1cc(Br)cc(C=NNc2nc3nonc3nc2Nc2cccc(Cl)c2)c1O [Example 152] | < 1000 | < 1000 | < 2000 |
| O=C1Nc2ccccc2C1=NNc1nc2nonc2nc1Nc1ccc(F)c(Cl)c1 [Example 182, 3-{1[6-(3-Chloro-4-fluoro-phenylamino)-[1,2,5]oxadiazolo[3,4-b]pyrazin-5-yl]-hydrazono}-1,3-dihydro-indol-2-one] | < 1000 | < 1000 | < 2000 |

Next, values leading:

| IC50 [1] [nM] | IC50 [2] [nM] | IC50 [3] [nM] | SMILES |
| --- | --- | --- | --- |
| < 1000 |  |  | Cc1ccc(Nc2nc3nonc3nc2NN=Cc2ccc(-c3cc(C)cc([N+](=O)[O-])c3C)o2)cc1 [Example 33, (6-[N′-[5-(2,5-Dimethyl-3-nitro-phenyl)-furan-2-ylmethylene]-hydrazino}-[1,2,5]oxadiazolo[3,4-b]pyrazin-5-yl)-p-tolyl-amine] |
| < 1000 | < 1000 |  | Clc1ccc(Nc2nc3nonc3nc2NN=Cc2ccco2)cc1Cl [Example 197, (3,4-Dichloro-phenyl)-[6-(N′-furan-2-ylmethylene-hydrazino)-[1,2,5]-oxadiazolo[3,4-b]pyrazin-5-yl]-amine] |
| < 1000 | < 1000 |  | O=[N+]([O-])c1ccc(-c2ccc(C=NNc3nc4nonc4nc3Nc3ccc(F)cc3)o2)cc1 [Example 39, (4-Fluoro-phenyl)-(6-{N′-[5-(4-nitro-phenyl)-furan-2-ylmethylene]-hydrazino}-[1,2,5]oxadiazolo[3,4-b]pyrazin-5-yl)-amine] |
| < 1000 | < 1000 | < 2000 | Clc1ccc(Nc2nc3nonc3nc2NN=Cc2cc3ccccc3o2)cc1Cl [Example 193, [6-(N′-Benzofuran-2-ylmethylene-hydrazino)-[1,2,5]oxadiazolo[3,4-b]pyrazin-5-yl]-(3,4-dichloro-phenyl)-amine] |
| < 1000 |  |  | O=[N+]([O-])c1cccc(-c2ccc(C=NNc3nc4nonc4nc3Nc3ccccc3)o2)c1 [Example 90, (6-{N′-[5-(3-Nitro-phenyl)-furan-2-ylmethylene]-hydrazino}-[1,2,5]oxadiazolo [3,4-b]pyrazin-5-yl)-phenyl-amine] |
| < 1000 |  |  | Clc1ccc(Nc2nc3nonc3nc2NN=Cc2ccc(-c3ccccc3)o2)cc1Cl [Example 195, (3,4-Dichloro-phenyl)-{6-[N′-(5-phenyl-furan-2-ylmethylene)-hydrazino]-[1,2,5]oxadiazolo[3,4-b]pyrazin-5-yl}-amine] |
| < 1000 |  |  | C(=NNc1nc2nonc2nc1Nc1ccccc1)c1cc2ccccc2o1 [Example 88, [6-(N′-Benzofuran-2-ylmethylene-hydrazino)-(1,2,5]oxadiazolo[3,4-b]pyrazin-5-yl]-phenyl-amine] |
| < 1000 | < 1000 |  | O=[N+]([O-])c1cccc(-c2ccc(C=NNc3nc4nonc4nc3Nc3ccc(F)cc3)o2)c1 [Example 135, (4-Fluoro-phenyl)-(6-{N′-[5-(3-nitro-phenyl)-furan-2-ylmethylene]-hydrazino}-[1,2,5]oxadiazolo [3,4-b]pyrazin-5-yl)-amine] |
| < 1000 | < 1000 |  | O=[N+]([O-])c1cc(-c2ccc(C=NNc3nc4nonc4nc3Nc3cccc(C(F)(F)F)c3)o2)ccc1Cl [Example 36, (6-{N-[5-(4-Chloro-3-nitro-phenyl)-furan-2-ylmethylene]-hydrazino}-[1,2,5]oxadiazolo [3,4-b]pyrazin-5-yl)-(3-trifluoromethyl-phenyl)-amine] |
| < 1000 |  | < 2000 | Fc1ccc(Nc2nc3nonc3nc2NN=Cc2ccc(-c3ccc(Cl)cc3Cl)o2)cc1 [Example 15, (6-{N′-[5-(2,4-Dichloro-phenyl)-furan-2-ylmethylene]-hydrazino}-[1,2,5]oxadiazolo [3,4-b]pyrazin-5-yl)-(4-fluoro-phenyl)-amine] |
| < 1000 |  |  | CCOC(=O)c1ccc(Nc2nc3nonc3nc2NN=Cc2cccc([N+](=O)[O-])c2O)cc1 [Example 37, 4-{6-[N′-(2-Hydroxy-3-nitro-benzylidene)-hydrazino]-[1,2,5]oxadiazolo[3,4-b]pyrazin-5-ylamino}-benzoic Acid Ethyl Ester] |
| < 1000 | < 1000 |  | Cc1cc(C)c([N+](=O)[O-])cc1-c1ccc(C=NNc2nc3nonc3nc2Nc2ccccc2F)o1 [Example 29, (6-{N′-[5-(2,4-Dimethyl-5-nitro-phenyl)-furan-2-ylmethylene]-hydrazino}-[1,2,5]oxadiazolo[3,4-b]pyrazin-5-yl)-(2-fluoro-phenyl)-amine] |
| < 1000 | < 1000 | < 2000 | Fc1ccc(Nc2nc3nonc3nc2NN=Cc2cc3ccccc3o2)cc1Cl [Example 172, [6-(N′-Benzofuran-2-ylmethylene-hydrazino)-[1,2,5]oxadiazolo[3,4-b]pyrazin-5-yl]-(3-chloro-4-fluoro-phenyl)-amine] |
| < 1000 | < 1000 | < 2000 | O=[N+]([O-])c1cccc(-c2ccc(C=NNc3nc4nonc4nc3Nc3ccc(F)c(Cl)c3)o2)c1 [Example 174, (3-Chloro-4-fluoro-phenyl)-(6-{N′-[5-(3-nitro-phenyl)-furan-2-ylmethylene]-hydrazino}-[1,2,5]oxadiazolo[3,4-b]pyrazin-5-yl)-amine] |
| < 1000 | < 1000 | < 2000 | Cc1cccc(Nc2nc3nonc3nc2NN=Cc2ccc(-c3ccc(Cl)c(C(=O)O)c3)o2)c1C [Example 2] |
| < 1000 | < 1000 | < 2000 | O=[N+]([O-])c1cccc(-c2ccc(C=NNc3nc4nonc4nc3Nc3cccc(Cl)c3)o2)c1 [Example 155, (3-Chloro-phenyl)-(6-{N′-[5-(3-nitro-phenyl)-furan-2-ylmethylene]-hydrazino}-[1,2,5]oxadiazolo[3,4-b]pyrazin-5-yl)-amine] |
| < 1000 | < 1000 | < 2000 | O=C(O)c1ccc(-c2ccc(C=NNc3nc4nonc4nc3Nc3ccc(F)c(Cl)c3)o2)cc1 [Example 179] |
| < 1000 | < 1000 |  | Fc1ccc(Nc2nc3nonc3nc2NN=Cc2ccc(-c3ccccc3)o2)cc1Cl [Example 175, (3-Chloro-4-fluoro-phenyl)-{6-[N′-(5-phenyl-furan-2-ylmethylene)-hydrazino]-[1,2,5]oxadiazolo [3,4-b]pyrazin-5-yl}-amine] |
| < 1000 | < 1000 | < 2000 | Clc1ccc(-c2ccc(C=NNc3nc4nonc4nc3Nc3ccc(Cl)c(Cl)c3)o2)cc1 [Example 200, (6-{N-[5-(4-Chloro-phenyl)-furan-2-ylmethylene]-hydrazino}-[1,2,5]-oxadiazolo[3,4-b]pyrazin-5-yl)-(3,4-dichloro-phenyl)-amine] |
